According to paper PMC5346980 (ACS Medicinal Chemistry Letters, 2017):
Read-outs that look alike come from different tables or passages of the source.

Key:
[1] = target: purified Hb (a mixture of HbA and HbS) (Homo sapiens, UniProt P69905); experiment: Hemoximetry oxygen equilibrium curves; assay type: biochemical; conditions: des-formyl compound lacking the aldehyde
Purified Hb = Purified Hb (Homo sapiens, UniProt P69905); experiment: Time dependence of hemoglobin-oxygen affinity; assay type: biochemical; conditions: Purified Hb 25 µM, 37 °C
Chain of Purified Hb (P69905 2-142 limits assumed): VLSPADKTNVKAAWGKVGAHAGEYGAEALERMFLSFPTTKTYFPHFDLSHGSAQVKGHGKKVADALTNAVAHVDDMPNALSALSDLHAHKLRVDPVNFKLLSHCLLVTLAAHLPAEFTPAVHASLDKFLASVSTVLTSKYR

P-gp = P-gp (Homo sapiens, UniProt P08183); experiment: Transporter substrate assessment; assay type: in vitro ADME
Chain of P-gp (P08183 whole entry): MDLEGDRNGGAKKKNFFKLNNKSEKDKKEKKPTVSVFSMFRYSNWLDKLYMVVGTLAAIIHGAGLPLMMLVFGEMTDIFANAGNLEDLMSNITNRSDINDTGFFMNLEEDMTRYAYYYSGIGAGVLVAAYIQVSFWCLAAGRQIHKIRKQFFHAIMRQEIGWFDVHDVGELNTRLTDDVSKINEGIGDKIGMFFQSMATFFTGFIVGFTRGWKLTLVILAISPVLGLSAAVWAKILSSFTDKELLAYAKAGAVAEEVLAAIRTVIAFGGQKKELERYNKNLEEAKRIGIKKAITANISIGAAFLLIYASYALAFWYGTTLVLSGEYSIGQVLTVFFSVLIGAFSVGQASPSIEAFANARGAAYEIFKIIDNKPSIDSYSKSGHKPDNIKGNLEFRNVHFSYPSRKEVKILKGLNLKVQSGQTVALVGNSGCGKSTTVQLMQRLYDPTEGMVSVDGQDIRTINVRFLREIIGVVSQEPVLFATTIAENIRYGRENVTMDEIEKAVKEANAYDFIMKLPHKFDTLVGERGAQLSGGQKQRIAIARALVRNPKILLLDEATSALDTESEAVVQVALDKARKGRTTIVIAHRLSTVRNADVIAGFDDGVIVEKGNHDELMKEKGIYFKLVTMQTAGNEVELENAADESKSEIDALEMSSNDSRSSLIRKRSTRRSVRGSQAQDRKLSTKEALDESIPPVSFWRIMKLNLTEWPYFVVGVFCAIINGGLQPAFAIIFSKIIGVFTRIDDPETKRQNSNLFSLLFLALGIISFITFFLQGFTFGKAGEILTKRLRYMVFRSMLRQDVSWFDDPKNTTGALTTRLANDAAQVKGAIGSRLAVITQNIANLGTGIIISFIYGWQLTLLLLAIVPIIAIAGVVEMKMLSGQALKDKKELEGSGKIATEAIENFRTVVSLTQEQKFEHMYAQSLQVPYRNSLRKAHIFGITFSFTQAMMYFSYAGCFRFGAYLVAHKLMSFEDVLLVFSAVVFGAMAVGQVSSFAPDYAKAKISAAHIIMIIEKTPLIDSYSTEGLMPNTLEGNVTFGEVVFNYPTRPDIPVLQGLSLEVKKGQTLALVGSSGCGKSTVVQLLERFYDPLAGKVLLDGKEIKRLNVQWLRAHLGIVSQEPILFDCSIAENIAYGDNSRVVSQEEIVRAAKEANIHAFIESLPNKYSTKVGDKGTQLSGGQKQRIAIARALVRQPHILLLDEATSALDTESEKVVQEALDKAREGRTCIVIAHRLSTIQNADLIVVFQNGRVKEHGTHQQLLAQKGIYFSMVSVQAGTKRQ

[2] = rats; cited from earlier work
CYP3A4 = CYP3A4 (Homo sapiens, UniProt P08684); experiment: Time-dependent CYP inhibition; assay type: in vitro ADME
Chain of CYP3A4 (P08684 whole entry): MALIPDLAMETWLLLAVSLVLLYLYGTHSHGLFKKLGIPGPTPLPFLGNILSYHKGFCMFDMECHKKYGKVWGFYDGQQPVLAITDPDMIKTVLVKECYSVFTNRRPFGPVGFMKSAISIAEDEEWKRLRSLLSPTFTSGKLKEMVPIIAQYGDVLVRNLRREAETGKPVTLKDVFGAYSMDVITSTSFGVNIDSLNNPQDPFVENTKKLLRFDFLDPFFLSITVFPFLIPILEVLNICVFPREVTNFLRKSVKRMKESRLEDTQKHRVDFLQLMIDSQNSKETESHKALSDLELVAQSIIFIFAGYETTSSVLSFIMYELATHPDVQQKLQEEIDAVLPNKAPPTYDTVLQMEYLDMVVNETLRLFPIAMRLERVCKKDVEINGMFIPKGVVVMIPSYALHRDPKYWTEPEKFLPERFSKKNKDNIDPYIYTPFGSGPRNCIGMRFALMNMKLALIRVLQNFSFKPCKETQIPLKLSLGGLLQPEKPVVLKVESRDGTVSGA

[3] = dogs; cited from earlier work
[4] = monkeys; cited from earlier work
CYP2C19 = CYP2C19 (Homo sapiens, UniProt P33261); experiment: Time-dependent CYP inhibition; assay type: in vitro ADME
Chain of CYP2C19 (P33261 whole entry): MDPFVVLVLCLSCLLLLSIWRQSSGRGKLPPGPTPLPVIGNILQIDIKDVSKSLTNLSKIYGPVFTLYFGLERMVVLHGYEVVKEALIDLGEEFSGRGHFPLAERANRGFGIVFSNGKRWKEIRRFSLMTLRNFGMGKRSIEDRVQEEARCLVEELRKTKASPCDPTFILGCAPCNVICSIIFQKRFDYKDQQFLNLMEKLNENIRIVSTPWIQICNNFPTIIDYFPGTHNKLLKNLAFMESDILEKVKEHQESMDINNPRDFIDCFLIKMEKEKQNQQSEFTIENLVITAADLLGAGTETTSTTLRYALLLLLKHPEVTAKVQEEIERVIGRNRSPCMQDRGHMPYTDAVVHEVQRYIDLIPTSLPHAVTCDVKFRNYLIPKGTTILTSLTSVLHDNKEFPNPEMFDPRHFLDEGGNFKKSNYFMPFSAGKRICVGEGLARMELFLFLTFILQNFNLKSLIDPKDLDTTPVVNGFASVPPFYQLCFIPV

BCRP = target: T1, BCRP (Homo sapiens, UniProt Q9UNQ0); experiment: Transporter substrate assessment; assay type: in vitro ADME
T1 sequence (Q9UNQ0 1-655): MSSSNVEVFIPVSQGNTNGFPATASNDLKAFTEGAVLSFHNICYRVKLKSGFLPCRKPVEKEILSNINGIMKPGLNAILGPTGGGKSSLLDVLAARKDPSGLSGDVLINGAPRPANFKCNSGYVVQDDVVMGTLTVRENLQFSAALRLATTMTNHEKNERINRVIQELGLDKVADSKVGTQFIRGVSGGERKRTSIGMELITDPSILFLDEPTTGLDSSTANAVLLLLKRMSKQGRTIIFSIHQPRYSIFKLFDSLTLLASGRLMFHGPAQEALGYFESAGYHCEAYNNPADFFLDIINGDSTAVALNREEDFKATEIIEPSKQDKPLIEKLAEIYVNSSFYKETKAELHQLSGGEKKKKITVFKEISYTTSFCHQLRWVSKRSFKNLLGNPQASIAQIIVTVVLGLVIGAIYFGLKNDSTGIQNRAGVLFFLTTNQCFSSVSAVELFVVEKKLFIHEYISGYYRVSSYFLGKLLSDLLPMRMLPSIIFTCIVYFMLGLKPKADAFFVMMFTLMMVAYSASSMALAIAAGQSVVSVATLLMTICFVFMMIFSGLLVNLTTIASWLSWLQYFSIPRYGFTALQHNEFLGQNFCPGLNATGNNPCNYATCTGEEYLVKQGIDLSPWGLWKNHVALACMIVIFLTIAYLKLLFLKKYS

Chain of purified Hb (a mixture of HbA and HbS) (P69905 2-142 limits assumed): as the sequence (P69905 2-142 limits assumed) above

## COc1ccc(OCc2cccnc2-c2ccnn2C(C)C)cn1 [Compound 46]
[1]
  activity as Hb allosteric modulator (result in words): inactive

## COc1ccc(OCc2cccnc2)c(C=O)c1 [Compound 4]
Purified Hb; compound 100 µM
  time to maximum effect on Hb oxygenation (surrogate for on-rate): ~1 h

## O=Cc1ccc(CO)o1 [Compound 1, 5-hydroxymethylfurfural]
Purified Hb; compound 5 mM
  time to maximum effect on Hb oxygenation (surrogate for on-rate): ~1 h

## CC(C)n1nccc1-c1ncccc1COc1cccc(O)c1C=O [Compound 36]
P-gp
  substrate for P-gp transporter: not a substrate
[2]
  blood and plasma half-lives: approximately 20 h
CYP3A4
  time-dependent inhibition: no significant time-dependent inhibition
[3]
  blood and plasma half-lives: approximately 20 h
[4]
  blood and plasma half-lives: approximately 20 h
CYP2C19
  time-dependent inhibition: no significant time-dependent inhibition
BCRP
  substrate for BCRP transporter: not a substrate
